This note sets out measurements from patent publication US20120095022A1, “DERIVATIVES OF 10-AMINO-1,2,3,4-TETRAHYDROPYRIDO[2,1-A]ISOINDOL-6(10BH)-ONES, METHOD FOR PREPARATION THEREOF AND THERAPEUTIC USES THEREOF” (UNIVERSITE D'ORLEANS, priority 2009, published 2012).

For one series, the target named is DYRK1A (Homo sapiens, UniProt Q13627). Nature of the series: DYRK1A kinase inhibition (Woodtide substrate).
In the next series the target is GSK-3αβ. Kind of series: GSK-3 kinase inhibition (GS-1 substrate). To be noted: read-out: IC50 μM Kinases GSK3, buffer A, 30° C., 15 μM ATP.
The next series deals with T1, CDK5/D25 (Homo sapiens, UniProt Q00535).
T1 construct: made in house
T1 sequence (Q00535 whole entry): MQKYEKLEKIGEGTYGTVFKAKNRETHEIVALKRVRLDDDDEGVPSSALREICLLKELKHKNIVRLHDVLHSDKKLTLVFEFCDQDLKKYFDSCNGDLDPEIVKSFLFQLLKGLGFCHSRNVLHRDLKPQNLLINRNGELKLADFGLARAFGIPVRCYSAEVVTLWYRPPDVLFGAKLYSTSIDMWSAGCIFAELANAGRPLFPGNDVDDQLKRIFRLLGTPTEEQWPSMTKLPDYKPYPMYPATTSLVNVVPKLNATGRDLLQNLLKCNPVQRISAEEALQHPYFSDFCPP
T1 sequence (Q15078 99-307 partner limits assumed): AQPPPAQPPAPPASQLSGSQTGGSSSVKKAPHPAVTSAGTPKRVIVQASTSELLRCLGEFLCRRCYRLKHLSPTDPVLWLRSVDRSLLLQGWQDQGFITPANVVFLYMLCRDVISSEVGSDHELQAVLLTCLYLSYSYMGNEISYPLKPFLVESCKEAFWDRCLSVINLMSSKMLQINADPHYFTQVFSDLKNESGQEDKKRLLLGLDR
Kind of series: CDK5 kinase inhibition (33P-ATP, histone H1). Format: biochemical. Particulars: buffer C, 30° C., 15 μM ATP, read-out: IC50 μM Kinases CDK5. On the procedure:
The protein kinase inhibition activities of the compounds of the invention are tested according to the following general procedure:
Buffer C: 60 mM β-glycerophosphate, 15 mM p-nitrophenyl-phosphate, 25 mM Mops (pH 7.2), 5 mM EGTA, 15 mM mgCl2, 1 mM DTT, 1 mM sodium vanadate and 1 mM phenylphosphate.
The controls were made with suitable dilutions of DMSO.
ATP (3.000 Ci/mmol.; 10 mCi/mL) in a final volume of 30 μL. After 30 mins of incubation at 30° C., 25 μL of supernatant aliquots were deposited on phosphocellulose Whatman P81 paper pieces of 2.5×3 cm, and after 20 seconds, the filters were washed five times (for at least 5 minutes each time) in a solution of 10 mL of phosphoric acid/1 litre of water. The wet filters were counted in the presence of 1 mL of scintillation fluid ACS (Amersham).

The next series relates to fibroblast. Kind of series: Cytotoxicity on human cells, automated nuclei counting: fibroblast. It counts as cell-based. To be noted: exposed 24 h to 48 h, 0.1 to 25 μM. On the procedure:
(§1) Cytotoxicity: This method is based on an automated imaging analysis. 4.10^3 cells were cultivated on 96-well plates and left for 24 hours so as to bind, to spread and proliferate.
(§2) All the cell lines were cultivated in a DMEM or RPMI (Invitrogen) medium. All these media were completed with antibiotics (penicillin-streptomycin) (Lonza) and 10% by volume of fetal calf serum (Invitrogen). The cells were cultivated at 37° C. with 5% of CO2. The treatments with the molecules to be tested were carried out with increasing concentrations. The control experiments were also carried out by using suitable dilutions of DMSO (maximum 1% DMSO).

The next series relates to NCI (lung). Kind of series: Cytotoxicity on human cells, automated nuclei counting: NCI. Format: cell-based. To be noted: exposed 24 h to 48 h, 0.1 to 25 μM. As for the experimental part:
as §1, §2

A further series has as its system MDA-MB 231 (breast). Nature of the series: Cytotoxicity on human cells, automated nuclei counting: MDA-MB 231. Particulars: MDA-MB 231 cells, exposed 24 h to 48 h, 0.1 to 25 μM. Format: cell-based. As for the experimental part: as §1, §2
Another series deals with HCT 116 (colon). Nature of the series: Cytotoxicity on human cells, automated nuclei counting: HCT 116. Format: cell-based. Particulars: HCT 116 cells, exposed 24 h to 48 h, 0.1 to 25 μM. On the procedure: as §1, §2
The subject of a further series is PC3 (prostate). Nature of the series: Cytotoxicity on human cells, automated nuclei counting: PC3. Format: cell-based. Particulars: PC-3, exposed 24 h to 48 h, 0.1 to 25 μM. On the procedure:
as §1, §2

The test system of a further series is Caco (colon). Nature of the series: Cytotoxicity on human cells, automated nuclei counting: Caco. Format: cell-based. To be noted: exposed 24 h to 48 h, 0.1 to 25 μM. On the procedure: as §1, §2
The next series concerns Huh7 (liver). Nature of the series: Cytotoxicity on human cells, automated nuclei counting: Huh7. It counts as cell-based. Particulars: Huh-7, exposed 24 h to 48 h, 0.1 to 25 μM. On the procedure: as §1, §2

As a reminder, the IC50 is the concentration that inhibits the measured activity by half. One may read the melting point as the temperature, or range, at which the solid turns liquid.

A value given as a limit tells only on which side of the number the result lay.

In the case of `O=C(Nc1ccncn1)Nc1cccc2c1C1CCCCN1C2=O` (stereo not drawn) [Compound 32, 1-(6-Oxo-1,2,3,4,6,10b-hexahydropyrido[2,1-a]isoindol-10-yl)-3-(pyrimidin-4-yl)urea], the melting point was determined as 218 °C. At DYRK1A, this molecule returned an IC50 of 71 µM. The IC50 on GSK-3αβ was 0.36 µM. Moreover, the IC50 at CDK5/D25 was 1.5 µM.
For `O=C(Nc1cccc2c1C1CCCCN1C2=O)Nc1nc(Cl)c(Cl)c(Cl)c1Cl` (stereo not drawn) [Compound 33, 1-(6-oxo-1,2,3,4,6,10b-hexahydropyrido[2,1-a]isoindol-10-yl)-3-(perchloro-pyridin-2-yl)urea], the melting point turned out to be 246 °C. The same molecule showed an IC50 with fibroblast of 0.5 µM. The molecule also had an IC50 with NCI (lung) of 0.8 µM. The molecule also registered an IC50 with MDA-MB 231 (breast) of 0.5 µM. In the series with HCT 116 (colon), this molecule had an IC50 of 0.5 µM. The IC50 against DYRK1A was more than 100 µM. The molecule also had an IC50 in the series on PC3 (prostate) of 1 µM. Further, the IC50 at GSK-3αβ is 4.3 µM. This molecule had an IC50 with Caco (colon) of 1.5 µM. The midpoint of inhibition in the series with Huh7 (liver), the IC50, lay at 0.25 µM.
Consider `Cn1ccc(NC(=O)Nc2cccc3c2C2CC4(CCN2C3=O)SCCS4)n1` (stereo not drawn) [Compound 40, 1-(6′-Oxo-3′,4′,6′,10b′-tetrahydro-1′H-spiro[[1,3]dithiolane-2,2′-pyrido[2,1-a]isoindole]-10′-yl)-3-(1-Methyl-1H-pyrazol-3-yl)urea], for which the melting point was 135 °C. On DYRK1A, this molecule returned an IC50 of more than 10 µM. Also, the IC50 at GSK-3αβ is 1.9 µM. For the same molecule, on CDK5/D25, the IC50 was not below 10 µM.
On to `Cn1ccc(NC(=O)Nc2cccc3c2C2CCCCN2C3=O)n1` (stereo not drawn) [Compound 41, 1-(1-Methyl-1H-pyrazol-3-yl)-3-(6-oxo-1,2,3,4,6,10b-hexahydro-pyrido[2,1-a]isoindol-10-yl)-urea], for which the melting point was determined as 233 °C. This molecule also gave an IC50 at DYRK1A of more than 10 µM. Further, the IC50 on GSK-3αβ worked out at 0.31 µM. For the same molecule, on CDK5/D25, the IC50 came to 0.51 µM.
Regarding `COc1cc(NC(=O)Nc2cccc3c2C2CC4(CCN2C3=O)SCCS4)nc2ccccc12` (stereo not drawn) [Compound 49], the IC50 was 25 µM with fibroblast; 10 µM in the series with NCI (lung); 20 µM with MDA-MB 231 (breast); 10 µM in the series with HCT 116 (colon); more than 10 µM on DYRK1A; 15 µM with PC3 (prostate). Also, the IC50 is 4 µM on GSK-3αβ, 15 µM with Caco (colon), more than 10 µM at CDK5/D25 and 5 µM in the series on Huh7 (liver).
Consider `COC1CCN2C(=O)c3cccc(NC(=O)Nc4ccccn4)c3C2C1` (stereo not drawn) [Compound 53, 1-(2-Methoxy-6-oxo-1,2,3,4,6,10b-hexahydropyrido[2,1-a]isoindol-10-yl)-3-(pyridin-2-yl)urea], for which the IC50 with fibroblast was 3 µM; with NCI (lung) it was 4 µM; in the series on MDA-MB 231 (breast) it was 2 µM; with HCT 116 (colon) it was 1 µM; at DYRK1A it was more than 10 µM; in the series with PC3 (prostate), 2 µM. The IC50 at GSK-3αβ stood at 0.081 µM; in the series with Caco (colon) it was 2.5 µM; on CDK5/D25, 0.55 µM; with Huh7 (liver), 0.7 µM.
Turning to `COC1CCN2C(=O)c3cccc(NC(=O)Nc4ncccc4C)c3C2C1` (stereo not drawn) [Compound 57, 1-(2-Methoxy-6-oxo-1,2,3,4,6,10b-hexahydropyrido[2,1-a]isoindol-10-yl)-3-(3-methylpyridin-2-yl)urea], the IC50 in the series with fibroblast is 3 µM; in the series on NCI (lung) it was 4 µM; with MDA-MB 231 (breast), 2.2 µM; in the series with HCT 116 (colon), 1 µM; at DYRK1A, more than 10 µM; in the series on PC3 (prostate), 1.2 µM. Further, the IC50 in the series with Caco (colon) came out at 2 µM; on CDK5/D25, 1.1 µM; with Huh7 (liver), 1.2 µM.
For `COC1CCN2C(=O)c3cccc(NC(=O)Nc4ccn(C)n4)c3C2C1` (stereo not drawn) [Compound 60, 1-(2-methoxy-6-oxo-1,2,3,4,6,10b-hexahydropyrido[2,1-a]isoindol-10-yl)-3-(1-methyl-1H-pyrazol-3-yl)urea], the IC50 is 15 µM in the series on fibroblast; 2 µM with NCI (lung); 10 µM with MDA-MB 231 (breast); 4 µM in the series on HCT 116 (colon); more than 10 µM at DYRK1A; 7 µM in the series on PC3 (prostate). Besides, the IC50 in the series on Caco (colon) came to 15 µM; on CDK5/D25 it was 2.3 µM; in the series with Huh7 (liver), 2 µM.
As to `O=C1c2cccc(NC(=S)Nc3ccccn3)c2C2CCCCN12` (stereo not drawn) [Compound 62, 1-(6-Oxo-1,2,3,4,6,10b-hexahydropyrido[2,1-a]isoindol-10-yl)-3-(pyridin-2-yl)thiourea], the melting point was 195 °C. The same molecule showed an IC50 in the series on fibroblast of more than 25 µM. The same molecule showed an IC50 in the series with NCI (lung) of more than 25 µM. Besides, half-maximal inhibition with MDA-MB 231 (breast) (IC50) was put at 25 µM. The molecule also showed an IC50 in the series on HCT 116 (colon) of 8 µM. This molecule also came in with an IC50 against DYRK1A of 47 µM. For the same molecule, the IC50 in the series on PC3 (prostate) was 20 µM. Moreover, the IC50 on GSK-3αβ amounted to 2.3 µM. The IC50 with Caco (colon) came out at 20 µM. The IC50 in the series on Huh7 (liver) was more than 25 µM.
Molecule `O=C1CCN2C(=O)c3cccc(NC(=O)Nc4cc(O)c5ccccc5n4)c3C2C1` (stereo not drawn) [Compound 103, 1-(2,6-Dioxo-1,2,3,4,6,10b-hexahydropyrido[2,1-a]isoindol-10-yl)-3-(4-hydroxyquinolin-2-yl)urea] showed a melting point of more than 260 °C. Besides, the IC50 at DYRK1A is not below 10 µM. In addition, at GSK-3αβ, the IC50 turned out to be 1.3 µM. Further, the IC50 on CDK5/D25 was more than 10 µM.
In turn, `Cc1cccnc1NC(=O)Nc1cccc2c1C1CC(O)CCN1C2=O` (stereo not drawn) [Compound 107, 1-(2-Hydroxy-6-oxo-1,2,3,4,6,10b-hexahydropyrido[2,1-a]isoindol-10-yl)-3-(3-methylpyridin-2-yl)urea] displayed a melting point of 204 to 206 °C. The molecule also registered an IC50 in the series on fibroblast of 6 µM. The molecule further returned an IC50 with NCI (lung) of 7 µM. The IC50 with MDA-MB 231 (breast) worked out at 8 µM. In the series with HCT 116 (colon), this molecule showed an IC50 of 1.5 µM. For the same molecule, the IC50 in the series on PC3 (prostate) was 5 µM. In addition, the half-maximal inhibitory concentration (IC50) in the series on Caco (colon) turned out to be 12 µM. The half-maximal inhibitory concentration (IC50) on CDK5/D25 amounted to 0.63 µM. In addition, in the series with Huh7 (liver), the IC50 amounted to 5 µM.
For the molecule `Cc1cccc(NC(=O)Nc2cccc3c2C2CC(O)CCN2C3=O)n1` (stereo not drawn) [Compound 108, 1-(2-Hydroxy-6-oxo-1,2,3,4,6,10b-hexahydropyrido[2,1-a]isoindol-10-yl)-3-(6-methylpyridin-2-yl)urea], the melting point is 240 to 242 °C. The same molecule registered an IC50 with fibroblast of 10 µM. The same molecule showed an IC50 in the series on NCI (lung) of 10 µM. Besides, the IC50 in the series with MDA-MB 231 (breast) was determined as 8 µM. The IC50 with HCT 116 (colon) was found to be 3 µM. Also, half-maximal inhibition in the series on PC3 (prostate) (IC50) was put at 2 µM. The same molecule came in with an IC50 in the series with Caco (colon) of 15 µM. Also, on CDK5/D25, the IC50 came out at 1 µM. The IC50 with Huh7 (liver) was found to be 3 µM.
Molecule `O=C(Nc1cc(O)c2ccccc2n1)Nc1cccc2c1C1CC(O)CCN1C2=O` (stereo not drawn) [Compound 110, 1-(2-Hydroxy-6-oxo-1,2,3,4,6,10b-hexahydropyrido[2,1-a]isoindol-10-yl)-3-(4-hydroxyquinolin-2-yl)urea] came in with a melting point of more than 260 °C. In addition, the IC50 against DYRK1A is not below 10 µM. The IC50 on GSK-3αβ turned out to be 2.5 µM. On CDK5/D25, the IC50 was more than 10 µM.
In turn, `CC(C)(C)OC(=O)n1ccc(NC(=O)Nc2cccc3c2C2CCCCN2C3=O)n1` (stereo not drawn) [Compound 118] returned a melting point of 136 °C. The IC50 against DYRK1A is more than 10 µM. Also, the IC50 on GSK-3αβ turned out to be 0.4 µM.
On the same counts, the results for `O=C(Nc1cc[nH]n1)Nc1cccc2c1C1CCCCN1C2=O` (stereo not drawn) [Compound 119, 1-(6-Oxo-1,2,3,4,6,10b-hexahydro-pyrido[2,1-a]isoindol-10-yl)-3-(1H-pyrazol-3-yl)-urea] are 185 °C, more than 10 µM and 0.47 µM.
